Experimental data taken from patent US20250296938A1, “Compounds that Interact with the Ras Superfamily for the Treatment of Cancers, Inflammatory Diseases, Rasopathies, and Fibrotic Disease” (SHY Therapeutics, LLC, priority 2018, published 2025).
Like-named read-outs stand apart in the source and are kept apart here.

Key:
Assay in all cases: Ras GTP binding domain inhibition assay (Cy3-GTP/Cy5-GTP competition)
Rac-1 = Rac-1 (Homo sapiens, UniProt P63000)
How it was run: (§1)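 First, His-tagged protein is coated on nickel wells overnight at 4 °C. Next, compound (20 μM single point or serial dilution) is added for 3 h at room temperature, with or without Sos exchange factor in the last hour. Finally, 100 nM labelled GTP binds for 45 min and retained signal is measured.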

Rho-A = Rho-A (Homo sapiens, UniProt P61586)
How it was run: as §1

KRas G12D mutant = target: T1, KRas G12D mutant (Homo sapiens, UniProt P01116, G12D); settings: at 20 μM
T1 construct: fused on or other part: His tag, used for capture on nickel-coated plates
How it was run: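 Compounds tested at 20 μM or in serial dilution for IC50 against nickel-captured His-tagged GTPase, 3 hours at room temperature, with or without His-Sos GEF added for last hour. Fluorescent GTP then added at 100 nM for 45 minutes; wells washed, bound label measured by fluorescence.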

[1] = with SOS, read-out: Rac-1 + SOS: % inh.
[2] = without SOS, read-out: Rac-1: % inh.
[3] = with SOS, read-out: Rho-A + SOS: % inh.
[4] = without SOS, read-out: Rho-A: % inh.
[5] = with SOS, read-out: KRas G12D mutant + SOS: % inh.
[6] = without SOS, read-out: KRas G12D mutant: % inh.

| inhibition at 20 µM (Rac-1; [1]) [%] | inhibition at 20 µM (Rac-1; [2]) [%] | inhibition at 20 µM (Rho-A; [3]) [%] | inhibition at 20 µM (Rho-A; [4]) [%] | inhibition at 20 µM (KRas G12D mutant; [5]) [%] | inhibition at 20 µM (KRas G12D mutant; [6]) [%] | SMILES |
| --- | --- | --- | --- | --- | --- | --- |
| 76 to 100 | 51 to 75 | 51 to 75 | 0 | 51 to 75 | 51 to 75 | COC1CCN(c2nc(-c3nccn3C)nc3sc(-c4ccccc4Cl)c(-c4cscn4)c23)C1 (stereo not drawn) [drawing 984] |
| 1 to 25 | 26 to 50 | 26 to 50 | 1 to 25 | 51 to 75 | 51 to 75 | COc1cc(-c2sc3nc(-c4nccn4C)nc(N4CCC(OC)C4)c3c2-c2ccccc2)ccn1 (stereo not drawn) [drawing 980] |
| 51 to 75 | 26 to 50 | 26 to 50 | 26 to 50 | 51 to 75 | 1 to 25 | COCCNc1nc(-c2nccn2C)nc2sc(-c3cccc(OC)c3Cl)c(-c3ccc(OC)cc3)c12 [drawing 1009] |
| 26 to 50 | 26 to 50 | 26 to 50 | 26 to 50 | 51 to 75 | 51 to 75 | COCC(C)Nc1nc(-c2nccn2C)nc2sc(-c3ccccc3Cl)c(-c3cscn3)c12 (stereo not drawn) [drawing 989] |
| 51 to 75 | 51 to 75 | 51 to 75 | 51 to 75 | 51 to 75 | 26 to 50 | COc1cccc(-c2sc3nc(-c4nccn4C)nc(N[C@H]4C[C@@H](OC)C4)c3c2-c2ccccc2)c1F [drawing 1026] |
| 1 to 25 | 1 to 25 | 51 to 75 | 26 to 50 | 51 to 75 | 51 to 75 | COC1CCN(c2nc(-c3nccn3C)nc3sc(-c4cnc(C5CC5)o4)c(-c4ccccc4)c23)C1 (stereo not drawn) [drawing 977] |
| 1 to 25 | 26 to 50 | 51 to 75 | 26 to 50 | 1 to 25 | 51 to 75 | CCN(CC)C(=O)c1nc(-c2nccn2C)nc(O)c1O [drawing 964] |
| 76 to 100 | 76 to 100 | 76 to 100 | 76 to 100 | 51 to 75 | 26 to 50 | CO[C@H]1CC[C@@H](Nc2nc(-c3nccn3C)nc3sc(-c4ccn(C)n4)c(C)c23)C1 [drawing 1050] |
| 26 to 50 | 1 to 25 | 1 to 25 | 1 to 25 | 1 to 25 | 1 to 25 | COc1cccc(-c2csc3c(O)nc(-c4nccn4C)nc23)c1Cl [drawing 1013] |
| 76 to 100 | 76 to 100 | 76 to 100 | 76 to 100 | 51 to 75 | 51 to 75 | COCCn1ccnc1-c1nc(O)c2scc(-c3ccc(OCC(C)C)nc3)c2n1 [drawing 1033] |
| 51 to 75 | 51 to 75 | 76 to 100 | 76 to 100 | 51 to 75 | 51 to 75 | CO[C@H]1CC[C@@H](Nc2nc(-c3nccn3C)nc3sc(-c4ccn(C(C)C)n4)c(-c4ccccc4)c23)C1 [drawing 1047] |
| 0 | 1 to 25 | 1 to 25 | 0 | 0 | 0 | COc1nc(-c2ccccn2)nc(Nc2cnn(C)c2)c1OC [drawing 929] |
| 76 to 100 | 76 to 100 | 76 to 100 | 51 to 75 | 26 to 50 | 26 to 50 | COc1c(O)nc(-c2ccccn2)nc1Oc1ccccc1 [drawing 948] |
| 51 to 75 | 51 to 75 | 76 to 100 | 76 to 100 | 51 to 75 | 76 to 100 | COc1cccc(-c2sc3nc(-c4nccn4C)nc(NC4CCC(OC)C4)c3c2C)c1F (stereo not drawn) [drawing 1028] |
| 51 to 75 | 51 to 75 | 26 to 50 | 26 to 50 | 1 to 25 | 1 to 25 | COCCN(C)C(=O)c1nc(-c2ccccn2)nc(O)c1O [drawing 945] |
| 51 to 75 | 26 to 50 | 26 to 50 | 51 to 75 | 1 to 25 | 26 to 50 | COC1CCN(c2nc(-c3nccn3C)nn3cc(-c4ccccc4)c(-c4ccccc4)c23)C1 (stereo not drawn) [drawing 931] |
| 51 to 75 | 51 to 75 | 51 to 75 | 51 to 75 | 1 to 25 | 51 to 75 | O=C(NC1CCCC1)c1nc(-c2ccccn2)nc(O)c1O [drawing 947] |
| 0 | 0 | 76 to 100 | 26 to 50 | 76 to 100 | 26 to 50 | COC1CCN(c2nc(-c3nccn3C)nc3sc(-c4cnn(C)c4)c(-c4ccccc4)c23)C1 (stereo not drawn) [drawing 970] |
| 0 | 0 | 26 to 50 | 0 | 1 to 25 | 1 to 25 | COC1CCN(c2nc(-c3nccn3C)nc3sc(-c4ccc(N)nc4C)c(-c4ccccc4)c23)C1 (stereo not drawn) [drawing 953] |
| 76 to 100 | 76 to 100 | 76 to 100 | 76 to 100 | 51 to 75 | 76 to 100 | CO[C@H]1CC[C@@H](Nc2nc(-c3nccn3C)nc3sc(C(=O)N4CCOCC4)c(-c4ccccc4)c23)C1 [drawing 1062] |
| 76 to 100 | 76 to 100 | 51 to 75 | 26 to 50 | 51 to 75 | 76 to 100 | COc1cccc(Cn2ccnc2-c2nc(O)c3scc(-c4ccccn4)c3n2)c1 [drawing 985] |
| 51 to 75 | 76 to 100 | 51 to 75 | 1 to 25 | 26 to 50 | 51 to 75 | COC(=O)c1nc(-c2nccn2C)nc(O)c1O [drawing 959] |
| 0 | 0 | 1 to 25 | 1 to 25 | 1 to 25 | 0 | COCC(C)Nc1nc(-c2nccn2C)nc2sc(-c3ccn(C)n3)c(-c3ccc(OC)cc3)c12 (stereo not drawn) [drawing 1004] |
| 51 to 75 | 51 to 75 | 76 to 100 | 76 to 100 | 26 to 50 | 76 to 100 | Cc1cn(C)c(-c2nc(O)c3scc(-c4ccccn4)c3n2)n1 [drawing 942] |
| 0 | 0 | 51 to 75 | 51 to 75 | 51 to 75 | 51 to 75 | COCC1CN(c2nc(-c3nccn3C)nc3sc(-c4cccc(OC)c4F)c(-c4ccc(OC)cc4)c23)C1 [drawing 940] |
